According to patent publication US20060074083A1, “Cyclic and acyclic propenones for treating CNS disorders” (MERZ PHARMA GMBH & CO. KGAA, priority 2004, published 2006):

melting point	Structure (SMILES)
138 to 140 °C	COc1ccc(/C=C/C(=O)C23CC4CC(CC(C4)C2)C3)cc1C [Example 10, 1-Adamantan-1-yl-3-(4-methoxy-3-methyl-phenyl)-propenone]
101 to 102 °C	O=C(/C=C/c1cnc2ccccc2c1)C1CC1 [Example 5, 1-Cyclopropyl-3-quinolin-3-yl-propenone]

Further lines, the compound ahead of its results:

Structure (SMILES)	melting point
O=C(/C=C/c1ccc2c(c1)OCCO2)C12CC3CC(CC(C3)C1)C2 [Example 11, 1-Adamantan-1-yl-3-(2,3-dihydrobenzo[1,4]dioxin-6-yl)-propenone]	125 to 127 °C
O=C(/C=C/c1cnc2ccccc2c1)C12CC3CC(CC(C3)C1)C2 [Example 7, 1-Adamantan-1-yl-3-quinolin-3-yl-propenone]	169 to 171 °C
COc1cc(/C=C/C(=O)C23CC4CC(CC(C4)C2)C3)cc(OC)c1 [Example 4, 1-Adamantan-1-yl-3-(3,5-dimethoxy-phenyl)-propenone]	118 to 119 °C
